Laboratory results as given in publication PMC12311725, “Identification of Ginsentide-like Peptides from Cacao Beans with Oxidative Stress Protection” (ACS Omega, 2025).
Where a SMILES comes first, the peptide text is derived from it. Bridges are numbered along the chain shown (N, C = ends).

Assays:
[1] = Peptide stability assay with pepsin (RP-HPLC); assay type: in vitro ADME; details: isolated enzyme pepsin, pepsin 50:1 (w/v) in 0.2 M HCl, 37 °C, peptide 0.1 M [sic], RP-HPLC peak area as % of initial, read-out: structural integrity retained (percentage of peptide remaining) after incubation with pepsin
Method: Stability studies were conducted using purified cocotide tC1 (0.1 M) and S-alkylated tC1 (iodoacetamido) under specific buffer conditions. Pepsin stability was assessed by incubating the samples in a mixture of pepsin at a ratio of 50:1 (w/v) in 0.2 M HCl at 37 °C. For trypsin stability, the samples were treated with trypsin in 0.1 M ammonium bicarbonate buffer (pH 8) at 37 °C. Analysis of stability assays involved collecting samples at various time points, which were then analyzed by reversed-phase high-performance liquid chromatography (RP-HPLC) using a linear gradient of mobile phase A (0.05% trifluoroacetic acid in water) and mobile phase B (0.05% trifluoroacetic acid in acetonitrile) on an Aeris Peptide XB-C18 column (Phenomenex). The stability results were expressed as a percentage of the initial concentration and determined by the peak area of the HPLC profile.
7 Proteolytic stability assays of cocotide tC1. Cocotide tC1 was incubated with either pepsin or trypsin at 37 °C for up to 6 h. S-alkylated tC1 was used as the control. At different time points, samples of cocotide tC1 and the control were quantified using reversed-phase high pressure liquid chromatography (RP-HPLC). The relative peak areas of the RP-HPLC profiles were used to quantify the percentage of peptides remaining after incubation with pepsin or trypsin.

[2] = Iron-binding assay (High-Select Fe-NTA spin column, RP-HPLC of flowthroughs); details: 1 h at room temperature, six water washes, elution
Method: The High-Select Fe-NTA Phosphopeptide Enrichment Kit (Thermo Fisher Scientific, USA) was used to investigate the iron-binding abilities of cocotide tC1. Briefly, cocotide tC1 was suspended in the binding buffer provided. The spin column was first equilibrated by adding 200 μL of the binding buffer and then centrifuged at 1000 × g for 30 s (Thermo Fisher Scientific, USA). The suspended peptide sample was added to the spin column and incubated for 1 h at room temperature. The sample was then centrifuged again at 1000 × g for 30 s, and the flowthrough was collected. The spin column was then washed six times with 100 μL of deionized water. Each time, the sample was centrifuged at 1000 × g for 30 s before collecting the flowthrough. Finally, 100 μL of the elution buffer provided was added, and the sample was centrifuged at 1000 × g for another 30 s before collecting the final eluted flowthrough. All eight flowthroughs were analyzed by using RP-HPLC.

[3] = Ferric Reducing Antioxidant Power (FRAP) assay
Method: OxiSelect Ferric Reducing Antioxidant Power (FRAP) Assay Kit (Cell Biolabs, USA) was used to measure the antioxidant potential of cocotide tC1. The assay was performed according to the manufacturer’s instructions .

[4] = Post-translational modification analysis of methionine oxidation (tims-TOF MS/MS); assay type: physicochemical; details: native peptide, during extraction and purification
Method: The primary sequences of cocotides from Theobroma cacao aqueous extracts were determined by LC-MS/MS sequencing as described previously. The C18-SPE fractionated Theobroma cacao aqueous extracts were redissolved in 20 mM DTT at 37 °C for 1 h followed by S-alkylation with 200 mM iodoacetamide at 37 °C for 1 h. The mixture was desalted with a C18 Zip-tip and subjected to analysis on a trapped ion mobility spectrometer-time-of-flight tandem mass spectrometer (tims-TOF MS/MS). Data analysis was performed using PEAKS Studio (version 11, Bioinformatics Solutions, Waterloo, ON, Canada) with a precursor ion tolerance of 10 ppm and a fragment ion tolerance of 0.05 Da. Carbamidomethylation at Cys was set as a fixed modification. Deamidation of […], oxidation of Met, and acetylation at Lys and N-term were set as variable modification. Peptide sequencing was performed using PEAKS DB protein identification, which integrates database search of an in-house ginsentide-like peptide library derived from Theobroma cacao transcriptome with de novo sequencing.

CC[C@H](C)[C@@H]1NC(=O)CNC(=O)[C@H](CCSC)NC(=O)[C@@H]2CCCN2C(=O)[C@H](Cc2ccc(O)cc2)NC(=O)[C@H](CC(C)C)NC(=O)[C@@H]2CSSC[C@@H]3NC(=O)[C@H](Cc4ccccc4)NC(=O)CNC(=O)CNC(=O)[C@H](C)NC(=O)[C@H](CO)NC(=O)[C@H](CC(C)C)NC(=O)[C@@H](N)CSSC[C@@H]4NC(=O)[C@H](CSSC[C@H](NC1=O)C(=O)N[C@@H](Cc1ccc(O)cc1)C(=O)NCC(=O)N[C@@H](CO)C(=O)NCC(=O)N[C@H](C(=O)O)CSSC[C@H](NC(=O)[C@H](CC(N)=O)NC(=O)CNC4=O)C(=O)NCC(=O)N2)NC(=O)[C@H](CC(=O)O)NC(=O)[C@H](CCSC)NC(=O)[C@@H]1CCCN1C(=O)[C@H](CC(N)=O)NC(=O)[C@H](Cc1ccccc1)NC(=O)[C@H](CCSC)NC3=O [cocotide tC1] (H-CLSAGGFCMFNPMDCCGNCGCLYPMGICYGSGC-OH; disulfide 1-16, 8-21, 15-28, 19-33; N-terminus and C-terminus assumed)
remaining at 6 h [1]: > 80%
interaction with Fe-NTA agarose resin [2]: interacts with the Fe-NTA agarose resin
antioxidant power relative to ascorbic acid ([3]; FRAP value of tC1 versus ascorbic acid (positive control)): 152 fold
FRAP value ([3]; OxiSelect FRAP Assay Kit): 55.1 Fe^2+ μM/μM
Met19 and Met25 oxidized to Met(O) [4]: < 5%
methionine at position 9 converted to Met(O) [4]: 27%
